Inhibition data for 55 molecules are collected here from ChEMBL document CHEMBL4014283, “Structural insights of SmKDAC8 inhibitors: Targeting Schistosoma epigenetics through a combined structure-based 3D QSAR, in vitro and synthesis strategy” (Bioorg Med Chem, 2017).

Each structure is given as a SMILES string.

This assay addresses T1, Histone deacetylase 8 (Schistosoma mansoni) (UniProt A5H660).
T1 sequence (whole entry): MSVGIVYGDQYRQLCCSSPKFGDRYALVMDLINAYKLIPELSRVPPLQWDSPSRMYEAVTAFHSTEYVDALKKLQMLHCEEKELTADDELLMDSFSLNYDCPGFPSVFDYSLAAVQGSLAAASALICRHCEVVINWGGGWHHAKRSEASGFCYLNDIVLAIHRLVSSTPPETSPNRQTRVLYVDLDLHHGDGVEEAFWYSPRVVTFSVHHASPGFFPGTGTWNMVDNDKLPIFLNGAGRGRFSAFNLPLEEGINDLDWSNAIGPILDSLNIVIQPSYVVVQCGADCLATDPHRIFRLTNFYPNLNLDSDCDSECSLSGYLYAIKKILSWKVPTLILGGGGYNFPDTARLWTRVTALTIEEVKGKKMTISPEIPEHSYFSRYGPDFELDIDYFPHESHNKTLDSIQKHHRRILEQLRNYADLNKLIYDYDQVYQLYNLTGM
Briefly: Inhibition of Schistosoma mansoni KDAC8 at 30 uM using (FAM)-labeled peptide as substrate after 60 mins by microfluidic assay.

The term inhibition denotes the change of the read-out against control, counted positive when it falls. A lower inhibition goes with a weak effect. With `CC(C)[C@@H]1NC(=O)[C@@H]2CCCN2C(=O)[C@H]2CCCN2C(=O)C[C@@H](C(=O)O)NC1=O`, the inhibition worked out at 0%. The value for `CSCCCNC(=O)[C@@H]1CC(=O)N2CCC[C@@H]2C(=O)N2CCC[C@H]2C(=O)N[C@@H](C(C)C)C(=O)N1` was 0%; that for `CC(C)[C@@H]1NC(=O)[C@@H]2CCCN2C(=O)[C@H]2CCCN2C(=O)C[C@H](C(=O)NCCC[S+](C)[O-])NC1=O` (stereo not given in full) was 0%. Turning to `CC(C)[C@@H]1NC(=O)[C@@H]2CCCN2C(=O)[C@H]2CCCN2C(=O)C[C@@H](C(=O)NCCCS(C)(=O)=O)NC1=O`, the inhibition stood at 0%. The value for `CC(C)[C@@H]1NC(=O)[C@@H]2CCCN2C(=O)[C@H]2CCCN2C(=O)C[C@H](C(=O)NCCCSSCCCNC(=O)[C@H]2CC(=O)N3CCC[C@@H]3C(=O)N3CCC[C@H]3C(=O)N[C@@H](C(C)C)C(=O)N2)NC1=O` was 0%.

`CC(C)[C@@H]1NC(=O)[C@@H]2CCCN2C(=O)[C@H]2CCCN2C(=O)C[C@@H](C(=O)OCc2ccccc2)NC1=O`: the inhibition stood at 0%. `CC(C)[C@@H]1NC(=O)[C@@H]2CCCN2C(=O)[C@H]2CCCN2C(=O)C[C@H](C(=O)NCCCO)NC1=O` displayed an inhibition of 0%. The value for `O=C(O)CCCCN1C(=O)[C@H](CCC(=O)NC(c2ccccc2)(c2ccccc2)c2ccccc2)N=C(c2ccccc2)c2ccccc21` was 0%.

The molecule `CC(C)[C@@H]1NC(=O)[C@@H]2CCCN2C(=O)[C@H]2CCCN2C(=O)C[C@@H](C(=O)NCCCO)NC1=O` returned an inhibition of 0%.

As for `CC(C)[C@@H]1NC(=O)[C@H]2CCCN2C(=O)[C@@H]2CCCN2C(=O)C[C@@H](C(=O)NCCCSSCCCNC(=O)[C@@H]2CC(=O)N3CCC[C@H]3C(=O)N3CCC[C@@H]3C(=O)N[C@@H](C(C)C)C(=O)N2)NC1=O`, the inhibition came out at 0%.

In the case of `CC(C)[C@@H]1NC(=O)[C@@H]2CCCN2C(=O)[C@H]2CCCN2C(=O)C[C@H](C(=O)NCCCC(=O)NO)NC1=O`, the inhibition came out at 25.8%.

For `CC(C)[C@@H]1NC(=O)[C@H]2CCCN2C(=O)[C@@H]2CCCN2C(=O)C[C@H](C(=O)NCCCS(C)(=O)=O)NC1=O`, the inhibition was found to be 0%.

Molecule `CC(C)[C@@H]1NC(=O)[C@H]2CCCN2C(=O)[C@@H]2CCCN2C(=O)C[C@@H](C(=O)O)NC1=O` displayed an inhibition of 0%. The same measure for `CC(C)[C@@H]1NC(=O)[C@@H]2CCCN2C(=O)[C@H]2CCCN2C(=O)C[C@H](C(=O)NCCCC(=O)O)NC1=O`: 0%; for `COC(=O)CCCNC(=O)[C@@H]1CC(=O)N2CCC[C@H]2C(=O)N2CCC[C@@H]2C(=O)N[C@@H](C(C)C)C(=O)N1`: 0%; for `CSCCCNC(=O)[C@H]1CC(=O)N2CCC[C@@H]2C(=O)N2CCC[C@H]2C(=O)N[C@@H](C(C)C)C(=O)N1`: 0%. On to `CC(C)[C@@H]1NC(=O)[C@@H]2CCCN2C(=O)[C@H]2CCCN2C(=O)C[C@H](C(=O)NCCCS)NC1=O`, for which the inhibition turned out to be 14.6%. Consider `CC(C)[C@@H]1NC(=O)[C@@H]2CCCN2C(=O)[C@H]2CCCN2C(=O)C[C@@H](C(=O)NCCCSSCCCNC(=O)[C@@H]2CC(=O)N3CCC[C@@H]3C(=O)N3CCC[C@H]3C(=O)N[C@@H](C(C)C)C(=O)N2)NC1=O`, for which the inhibition came to 0%. The same measure for `CSCCCNC(=O)[C@@H]1CC(=O)N2CCC[C@H]2C(=O)N2CCC[C@@H]2C(=O)N[C@@H](C(C)C)C(=O)N1`: 0%. Molecule `CC(C)[C@@H]1NC(=O)[C@H]2CCCN2C(=O)[C@@H]2CCCN2C(=O)C[C@H](C(=O)NCCSSCCNC(=O)[C@H]2CC(=O)N3CCC[C@H]3C(=O)N3CCC[C@@H]3C(=O)N[C@@H](C(C)C)C(=O)N2)NC1=O` displayed an inhibition of 0%.

The molecule `CC(C)[C@@H]1NC(=O)[C@@H]2CCCN2C(=O)[C@H]2CCCN2C(=O)C[C@@H](C(=O)NCCCC(=O)NO)NC1=O` gave an inhibition of 21.2%.

For the molecule `CC(C)[C@@H]1NC(=O)[C@H]2CCCN2C(=O)[C@@H]2CCCN2C(=O)C[C@H](C(=O)O)NC1=O`, the inhibition turned out to be 0%.

In the case of `CC(C)[C@@H]1NC(=O)[C@H]2CCCN2C(=O)[C@@H]2CCCN2C(=O)C[C@H](C(=O)NCCC[S+](C)[O-])NC1=O` (stereo not given in full), the inhibition was 0%. The same measure for `CC(C)[C@@H]1NC(=O)[C@H]2CCCN2C(=O)[C@@H]2CCCN2C(=O)C[C@H](C(=O)NCCCSCCN)NC1=O`: 0%; for `CC(C)[C@@H]1NC(=O)[C@H]2CCCN2C(=O)[C@@H]2CCCN2C(=O)C[C@@H](C(=O)NCCCS(C)(=O)=O)NC1=O`: 0%; for `CC(C)[C@@H]1NC(=O)[C@@H]2CCCN2C(=O)[C@H]2CCCN2C(=O)C[C@@H](C(=O)NCCCN)NC1=O`: 0%.

Turning to `CC(C)[C@@H]1NC(=O)[C@H]2CCCN2C(=O)[C@@H]2CCCN2C(=O)C[C@@H](C(=O)NCCS)NC1=O`, the inhibition stood at 0%. For `COC(=O)CCCNC(=O)[C@H]1CC(=O)N2CCC[C@@H]2C(=O)N2CCC[C@H]2C(=O)N[C@@H](C(C)C)C(=O)N1`, the inhibition stood at 0%.

Molecule `CC(C)[C@@H]1NC(=O)[C@@H]2CCCN2C(=O)[C@H]2CCCN2C(=O)C[C@H](C(=O)NCCSSCCN)NC1=O` came in with an inhibition of 0%. `CC(C)[C@@H]1NC(=O)[C@H]2CCCN2C(=O)[C@@H]2CCCN2C(=O)C[C@@H](C(=O)NCCCSCCN)NC1=O` had an inhibition of 0%.

As to `CC(C)[C@@H]1NC(=O)[C@@H]2CCCN2C(=O)[C@H]2CCCN2C(=O)C[C@H](C(=O)NCCSSCCNP(=O)(Oc2ccccc2)Oc2ccccc2)NC1=O`, the inhibition turned out to be 3%. The value for `CC(C)[C@@H]1NC(=O)[C@H]2CCCN2C(=O)[C@@H]2CCCN2C(=O)C[C@@H](C(=O)NCCCO)NC1=O` was 0%; that for `CC(C)[C@@H]1NC(=O)[C@H]2CCCN2C(=O)[C@@H]2CCCN2C(=O)C[C@@H](C(=O)OCc2ccccc2)NC1=O` was 0%. The same measure for `CC(C)[C@@H]1NC(=O)[C@@H]2CCCN2C(=O)[C@H]2CCCN2C(=O)C[C@H](C(=O)NCCS)NC1=O`: 8.3%; for `CC(C)[C@@H]1NC(=O)[C@@H]2CCCN2C(=O)[C@H]2CCCN2C(=O)C[C@H](C(=O)OCc2ccccc2)NC1=O`: 0%; for `CC(C)[C@@H]1NC(=O)[C@H]2CCCN2C(=O)[C@@H]2CCCN2C(=O)C[C@@H](C(=O)NCCCC(=O)O)NC1=O`: 0%. The same measure for `CC(C)[C@@H]1NC(=O)[C@@H]2CCCN2C(=O)[C@H]2CCCN2C(=O)C[C@H](C(=O)NCCSSCCNC(=O)[C@H]2CC(=O)N3CCC[C@@H]3C(=O)N3CCC[C@H]3C(=O)N[C@@H](C(C)C)C(=O)N2)NC1=O`: 0%; for `CC(C)[C@@H]1NC(=O)[C@@H]2CCCN2C(=O)[C@H]2CCCN2C(=O)C[C@@H](C(=O)NCCSSCCNP(=O)(Oc2ccccc2)Oc2ccccc2)NC1=O`: 0%; for `COC(=O)CCCNC(=O)[C@H]1CC(=O)N2CCC[C@H]2C(=O)N2CCC[C@@H]2C(=O)N[C@@H](C(C)C)C(=O)N1`: 1.47%.

Take `CC(C)[C@@H]1NC(=O)[C@@H]2CCCN2C(=O)[C@H]2CCCN2C(=O)C[C@H](C(=O)O)NC1=O`: the inhibition was determined as 0%.

The molecule `CC(C)[C@@H]1NC(=O)[C@@H]2CCCN2C(=O)[C@H]2CCCN2C(=O)C[C@H](C(=O)NCCCN)NC1=O` registered an inhibition of 0%. Turning to `CC(C)[C@@H]1NC(=O)[C@H]2CCCN2C(=O)[C@@H]2CCCN2C(=O)C[C@H](C(=O)NCCCS)NC1=O`, the inhibition was 3.18%. The value for `CC(C)[C@@H]1NC(=O)[C@H]2CCCN2C(=O)[C@@H]2CCCN2C(=O)C[C@H](C(=O)NCCCSSCCCNC(=O)[C@H]2CC(=O)N3CCC[C@H]3C(=O)N3CCC[C@@H]3C(=O)N[C@@H](C(C)C)C(=O)N2)NC1=O` was 3.36%; that for `CC(C)[C@@H]1NC(=O)[C@@H]2CCCN2C(=O)[C@H]2CCCN2C(=O)C[C@H](C(=O)NCCCS(C)(=O)=O)NC1=O` was 0%; that for `CC(C)[C@@H]1NC(=O)[C@@H]2CCCN2C(=O)[C@H]2CCCN2C(=O)C[C@@H](C(=O)NCCC[S+](C)[O-])NC1=O` (stereo not given in full) was 0%.

On to `CC(C)[C@@H]1NC(=O)[C@H]2CCCN2C(=O)[C@@H]2CCCN2C(=O)C[C@H](C(=O)NCCCC(=O)O)NC1=O`, for which the inhibition turned out to be 0%. The same measure for `CC(C)[C@@H]1NC(=O)[C@H]2CCCN2C(=O)[C@@H]2CCCN2C(=O)C[C@@H](C(=O)NCCCS)NC1=O`: 1.45%; for `CC(C)[C@@H]1NC(=O)[C@H]2CCCN2C(=O)[C@@H]2CCCN2C(=O)C[C@@H](C(=O)NCCC[S+](C)[O-])NC1=O` (stereo not given in full): 0%; for `CC(C)[C@@H]1NC(=O)[C@H]2CCCN2C(=O)[C@@H]2CCCN2C(=O)C[C@H](C(=O)NCCS)NC1=O`: 0%. `CSCCCNC(=O)[C@H]1CC(=O)N2CCC[C@H]2C(=O)N2CCC[C@@H]2C(=O)N[C@@H](C(C)C)C(=O)N1` registered an inhibition of 0%.

The molecule `CC(C)[C@@H]1NC(=O)[C@@H]2CCCN2C(=O)[C@H]2CCCN2C(=O)C[C@@H](C(=O)NCCS)NC1=O` registered an inhibition of 0%.

`CC(C)[C@@H]1NC(=O)[C@@H]2CCCN2C(=O)[C@H]2CCCN2C(=O)C[C@@H](C(=O)NCCSSCCN)NC1=O` came in with an inhibition of 0%. The same measure for `CC(C)[C@@H]1NC(=O)[C@@H]2CCCN2C(=O)[C@H]2CCCN2C(=O)C[C@@H](C(=O)NCCCS)NC1=O`: 0.84%. The value for `CC(C)[C@@H]1NC(=O)[C@@H]2CCCN2C(=O)[C@H]2CCCN2C(=O)C[C@@H](C(=O)NCCSSCCNC(=O)[C@@H]2CC(=O)N3CCC[C@@H]3C(=O)N3CCC[C@H]3C(=O)N[C@@H](C(C)C)C(=O)N2)NC1=O` was 0%. The value for `CC(C)[C@@H]1NC(=O)[C@@H]2CCCN2C(=O)[C@H]2CCCN2C(=O)C[C@@H](C(=O)NCCCC(=O)O)NC1=O` was 0%.
